From patent US20080279957A1, “Immunomodulating compositions from bile” (Lorus Therapeutics Inc., priority 2000, published 2008)
“And” between values parts separate entries of the source, which are not always exact repeats. Identical values can stand only once.

What was measured:
Type in all cases: cell-based
[1] = tested on: human peripheral blood mononuclear cells (PBMN); test: Survival of PBMN, trypan blue dye exclusion; conditions: Patient
From the text: At the end of this period, the number of surviving cells was estimated by trypan blue dye exclusion.

human PBMN [2] = test: Direct effect of composition on cytokine production by PBMN (IL-1α, IL-1β, IL-6, IL-8, GM-CSF, IFN-γ, IL-4; ELISA); conditions: LPS 1 μg, 24 hrs
human PBMN [3] = test: Direct TNF release from PBMN by composition in the absence of LPS (ELISA); conditions: 24 hrs; seven patient samples
Experimental: (§1) Peripheral blood mononuclear cells (PBMNs) were isolated by gradient centrifugation on Ficoll-Hypaque (Pharmacia). The PBMN were washed twice with phosphate buffered saline (PBS), counted and resuspended in RPMI 1640 culture medium (Gibco Labs) at a concentration of 10^6 cells/0.5 ml. These cells were cultured in 24 well, flat-bottomed tissue culture plates (Falcon, Becton, Dickinson). […] The total volume was then made up to 1 ml/well with RPMI. As control, PBS was used instead of composition. The cells were cultured for 2, 6, 24, 48 and 72 hours at 37° C. in a humidified 5% CO2 incubator. At the end of each incubation period, the cells were harvested and cell free culture fluids were obtained by centrifugation at 9000 rpm for 10 minutes. The samples were then stored at −70° C. until ELISA for cytokines was carried out (within 2 weeks).
The direct stimulatory effect of Batch B0203 was tested at different volumes and then at different times.
Batch B0203 stimulated maximum TNF-release at about 100 μl (Table 16). […] Thus, the composition was able to stimulate TNF-release on its own, that is in the absence of LPS and the curves for TNF-release were similar to when the composition and LPS were combined.

human PBMN [4] = test: LPS-stimulated release of cytokines other than TNF by PBMN, LPS plus composition; conditions: LPS (50 ng/ml) alone
Experimental: as §1, with “In the studies of TNF, whole blood was drawn from 5 healthy subjects into heparinized Vacutainer tubes. Peripheral” for “Peripheral”
Experiments were performed to determine whether the composition of the invention would impair LPS-stimulated release. […] The effects on the other cytokines IL-6, IL-8, IFN-gamma and GM-CSF were not as marked. However, in no instance did the compositions tested augment the effect of LPS stimulated release of cytokines.

human PBMN [5] = test: LPS-induced release of TNF by PBMN, LPS plus composition or fractions (Example 9)
Experimental: as §1, with “In the studies of TNF, whole blood was drawn from 5 healthy subjects into heparinized Vacutainer tubes. Peripheral” for “Peripheral”, “As control, PBS was used instead of composition.” left out
The effect of different volumes of the compositions of the invention in inhibiting LPS stimulated release of TNF was examined.
This separation technique is used for small polar substances. […] The precipitate and the soluble fraction were separated. Both the precipitate and soluble fraction were taken to dryness by lyophilization. The precipitate and soluble fraction were reconstituted in aqueous solutions and both analyzed by RP-HPLC and tested for TNF-α releasing activity.
In the next series of experiments, the activity of the precipitate and supernatants were evaluated after their separation by C18 RP-HPLC. The precipitate and supernatant were collected as 2 pools from RP-HPLC: 2 to 21 min and 21 to 46 min.

[6] = second LPS section, LPS 1 μg/well, 24 hrs
[7] = second LPS section, LPS 1 μg/well, 48 hrs
[8] = second LPS section, LPS 10 μg/well, 24 hrs
[9] = second LPS section, LPS 10 μg/well, 48 hrs
[10] = LPS 50 ng, first line printed LPS (1) (Table 31)
[11] = LPS 50 ng, second line printed LPS (1) (Table 31)

For Lipopolysaccharide [LPS], the “% viable” value ([1]; LPS 1 μg/well, 24 hrs) was 43%, the “No. of Live PBMN per Well by Trypan Blue” value ([1]; LPS 1 μg/well, 24 hrs) was 0.30 ×10^6 and the “% viable” value ([1]; LPS 1 μg/well, 48 hrs) was 40%. The “No. of Live PBMN per Well by Trypan Blue” value ([1]; LPS 1 μg/well, 48 hrs) was 0.28 ×10^6, the “% viable” value ([1]; LPS 10 μg/well, 24 hrs) was 36% and the “No. of Live PBMN per Well by Trypan Blue” value ([1]; LPS 10 μg/well, 24 hrs) was 0.25 ×10^6. The “% viable” value ([1]; LPS 10 μg/well, 48 hrs) was 18%, the “No. of Live PBMN per Well by Trypan Blue” value ([1]; LPS 10 μg/well, 48 hrs) was 0.13 ×10^6 and the “% viable” value [1, 6] was 46%. For the same substance, the “No. of Live PBMN per Well by Trypan Blue” value [1, 6] was 0.60 ×10^6, the “% viable” value [1, 7] was 41% and the “No. of Live PBMN per Well by Trypan Blue” value [1, 7] was 0.53 ×10^6. For the same substance, the “% viable” value [1, 8] was 12%, the “No. of Live PBMN per Well by Trypan Blue” value [1, 8] was 0.15 ×10^6 and the “% viable” value [1, 9] was 12%. The “No. of Live PBMN per Well by Trypan Blue” value [1, 9] was 0.15 ×10^6, the GM-CSF released (human PBMN [2]) was 54 ± 20 pg/mL and the IFN-γ released (human PBMN [2]) was 54 ± 94 pg/mL. It also gave an IL-1β released (human PBMN [2]) of 965 ± 99 pg/mL, an IL-4 released (human PBMN [2]) of less than 3.0 pg/mL and an IL-6 released (human PBMN [2]) of 2016 ± 41 pg/mL. For the same substance, the IL-1α released (human PBMN [2]; eight patient samples) was 315 ± 117 pg/mL, the TNF Released (human PBMN [3]) was 1501 ± 284 pg/mL and the GM-CSF released (human PBMN [4]) was 54 ± 65. It also gave an IFN-γ released (human PBMN [4]) of 30 ± 24, an IL-6 released (human PBMN [4]) of 2320 ± 1081 and an IL-8 released (human PBMN [4]) of 118 ± 62 ng/mL. The IL-16 released (human PBMN [4]) was 1314 ± 723, the IL-1α released (human PBMN [4]; six patients) was 129 ± 135 and the “TNF Released” value (human PBMN [5]; 1X 199 Medium, LPS 10 ng/10 μl, 1 patient) was 124 pg/mL. The “TNF Released” value (human PBMN [5]; 1X 199 Medium, LPS 50 ng/10 μl, 1 patient) was 155 pg/mL, the “TNF Released” value (human PBMN [5]; 1X 199 Medium, LPS 100 ng/10 μl, 1 patient) was 147 pg/mL and the “TNF Released” value (human PBMN [5]; 1X 199 Medium, LPS 200 ng/10 μl, 1 patient) was 213 pg/mL. The “TNF Released” value (human PBMN [5]; 1X 199 Medium, LPS 1000 ng/10 μl, 1 patient) was 404 pg/mL, the “TNF Released” value (human PBMN [5]; 1640 RPMI Medium, LPS 50 ng/10 μl, 1 patient) was 356 pg/mL and the “TNF Released” value (human PBMN [5]; 1640 RPMI Medium, LPS 100 ng/10 μl, 1 patient) was 323 pg/mL. The “TNF Released” value (human PBMN [5]; 1640 RPMI Medium, LPS 200 ng/10 μl, 1 patient) was 455 pg/mL, the “TNF Released” value (human PBMN [5]; 1640 RPMI Medium, LPS 1000 ng/10 μl, 1 patient) was 558 pg/mL and the “TNF Released by LPS (50 ng/ml)” value (human PBMN [5]; 2 hr) was 697 pg/mL and 697 ± 94 pg/mL. The “TNF Released by LPS (50 ng/ml)” value (human PBMN [5]; 24 hr) was 800 ± 222 pg/mL, the “TNF Released by LPS (50 ng/ml)” value (human PBMN [5]; 48 hr) was 170 ± 149 pg/mL and the “TNF Released by LPS (50 ng/ml)” value (human PBMN [5]; 72 hr) was 132 ± 147 pg/mL. The “TNF Released -LPS” value (human PBMN [5]; LPS 50 ng (Table 29)) was 0 pg/mL, the “TNF Released -LPS” value (human PBMN [5]; LPS 50 ng (Table 30)) was 0 pg/mL and the “TNF Released −LPS” value (human PBMN [5]; LPS 50 ng/10 μl (Table 24)) was 0 pg/mL. For the same substance, the “TNF Released -LPS” value (human PBMN [5]; LPS 50 ng/10 μl (Table 25)) was 0 pg/mL, the “TNF Released -LPS” value (human PBMN [5]; LPS 50 ng/10 μl (Table 26)) was 0 pg/mL and the “TNF Released Total” value (human PBMN [5]; LPS 50 ng/10 μl, 1X 199 Medium, 2 patients (Table 26)) was 136 ± 38 pg/mL. The “TNF Released Total” value (human PBMN [5]; LPS 50 ng/10 μl, 1X 199 Medium, 5 patients (Table 24)) was 161 ± 50 pg/mL, the “TNF Released Total” value (human PBMN [5]; LPS 50 ng/10 μl, 199 Medium, 2 patients (Table 25)) was 194 ± 93 pg/mL and the “TNF Released Total” value (human PBMN [5]; LPS 50 ng, 199 Medium, 5 patients (Table 29)) was 322 ± 115 pg/mL. The “TNF Released Total” value (human PBMN [5]; LPS 50 ng, 199 Medium, 5 patients (Table 30)) was 99 ± 43 pg/mL, the “TNF Released -LPS” value (human PBMN [5]; [10]) was 0 pg/mL and the “TNF Released Total” value (human PBMN [5]; [10]) was 136 ± 62 pg/mL. For the same substance, the “TNF Released -LPS” value (human PBMN [5]; [11]) was 0 pg/mL, the “TNF Released Total” value (human PBMN [5]; [11]) was 81 ± 25 pg/mL and the TNF Released (human PBMN [5]; LPS (50 ng/ml) alone, Table 10) was 915 ± 763. For the same substance, the “TNF Released −LPS” value (human PBMN [5]; absence of Polymyxin, 200 μl, 5 patients (Table 22)) was 0 pg/mL, the “TNF Released Total” value (human PBMN [5]; absence of Polymyxin, composition and fractions 200 μl, LPS 50 ng/10 μl, 5 patients (Table 22)) was 219 pg/mL and the “TNF Released −LPS” value (human PBMN [5]; absence of Polymyxin, footnote 200 μl, 3 patients (Table 23)) was 0 pg/mL. The “TNF Released Total” value (human PBMN [5]; absence of Polymyxin, footnote: composition and fractions 200 μl, LPS 50 ng/10 μl, 3 patients (Table 23)) was 195 ± 72 pg/mL, the “TNF Released −LPS” value (human PBMN [5]; no additive, LPS 50 ng/10 μl, composition 200 μl (Table 19)) was 0 pg/mL and the “TNF Released Total” value (human PBMN [5]; no additive, LPS 50 ng/10 μl, composition 200 μl, 3 patients (Table 19)) was 517 pg/mL and 517 ± 118 pg/mL.
